This note sets out measurements from ChEMBL document CHEMBL1201862, “PubChem BioAssay data set” (2004).

Test systems include OVCAR-3; NCI-H23; IGROV-1; SF-268; HT-29; KM12; HL-60; OVCAR-4; HCT-15; OVCAR-8; A498; K562; SK-OV-3; ACHN.
What all share (experiment): DTP human tumour cell line panel, 48 h

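Interpolation was linear, between the two tested concentrations surrounding the appropriate level; five concentrations were tested over 48 hours in 96-well plates. GI50 is the concentration that inhibits growth by half.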 The source made the active and inactive calls. Rule as the data show it: active = GI50 up to about 1.1 µM and inactive = higher.

By GI50 is commonly meant the concentration that inhibits growth by half. Regarding `Oc1c(Cl)c2nccnc2c2ccccc12`, the GI50 in the assay on OVCAR-3, in the assay with NCI-H23, in the assay on IGROV-1, in the assay on SF-268, with HT-29 and in the assay with KM12 was > 100 µM (inactive) each time. For the same molecule, the GI50 was > 100 µM (inactive) with HL-60; > 100 µM (inactive) in the assay with OVCAR-4; > 100 µM with HCT-15; > 100 µM (inactive) in the assay with OVCAR-8; > 100 µM (inactive) with A498; > 100 µM (inactive) in the assay on K562. The GI50 in the assay with SK-OV-3 and in the assay on ACHN was > 100 µM (inactive) in each case.

On to `COC(=O)CCC1=NOC(CC2CC(CCC(=O)OC)=NO2)C1` (stereo not given), for which the GI50 in the assay on OVCAR-3, in the assay on NCI-H23, with IGROV-1, with SF-268, in the assay with HT-29 and in the assay with KM12 was > 100 µM (inactive) in each case. For the same molecule, the GI50 in the assay on HL-60 was > 100 µM (inactive); in the assay with OVCAR-4 it was > 100 µM (inactive); in the assay with HCT-15 it was > 100 µM; in the assay with OVCAR-8 it was > 100 µM (inactive); in the assay with A498, > 100 µM (inactive); with K562, > 100 µM (inactive). For the same molecule, the GI50 with SK-OV-3 is > 100 µM (inactive).

Take `[O-][Cl+3]([O-])([O-])O.c1ccc(/N=c2\snc(-c3ccccc3)s2)cc1`: the GI50 is > 100 µM (inactive) in the assay on IGROV-1; > 100 µM (inactive) in the assay with SF-268; > 100 µM (inactive) in the assay on KM12; > 100 µM (inactive) in the assay on HL-60; > 100 µM (inactive) in the assay with OVCAR-4; > 100 µM in the assay with HCT-15. The GI50 in the assay with OVCAR-8, in the assay with A498, with K562, in the assay on SK-OV-3 and with ACHN was > 100 µM (inactive) each time.

For `O=C1NC(=O)c2c1n(Cc1ccccc1)c(=O)n2Cc1ccccc1`, the GI50 with OVCAR-3, with NCI-H23, in the assay on IGROV-1, in the assay on SF-268, in the assay with HT-29 and in the assay with KM12 was > 100 µM (inactive) throughout. The GI50 was 87.7 µM (inactive) in the assay on HL-60; > 100 µM (inactive) in the assay with OVCAR-4; 77.8 µM in the assay with HCT-15; > 100 µM (inactive) in the assay on OVCAR-8; 30.4 µM (inactive) with A498; 35.8 µM (inactive) in the assay with K562. The GI50 in the assay on SK-OV-3 and in the assay with ACHN was > 100 µM (inactive) in each case.

`N#C[C@]12CC3(CC[C@H]1CC1(C2)OCCO1)OCCO3`: the GI50 in the assay with OVCAR-3, in the assay on IGROV-1, in the assay with SF-268, in the assay with KM12, in the assay on HL-60 and with OVCAR-4 was > 100 µM (inactive) in each case. Moreover, the GI50 in the assay on HCT-15 is > 100 µM; in the assay on OVCAR-8, > 100 µM (inactive); in the assay with A498, > 100 µM (inactive); with K562, > 100 µM (inactive); in the assay on SK-OV-3 it was > 100 µM (inactive); with ACHN, > 100 µM (inactive).

Consider `Cc1[nH]c2ccccc2c1C(=O)CC1(O)C(=O)Nc2c(Cl)cc(Cl)cc21` (stereo not given), for which the GI50 is 16.6 µM (inactive) with OVCAR-3; 19.5 µM (inactive) with NCI-H23; 53.1 µM (inactive) in the assay with IGROV-1; 25.3 µM (inactive) in the assay with SF-268; 54.3 µM (inactive) in the assay on HT-29; 61.9 µM (inactive) in the assay with KM12. Besides, the GI50 in the assay with HL-60 is 14.6 µM (inactive); in the assay on OVCAR-4, 9.75 µM (inactive); in the assay with HCT-15, 40.5 µM; in the assay on OVCAR-8, 24.3 µM (inactive); in the assay on A498 it was 33 µM (inactive); in the assay with K562, 20.9 µM (inactive). Besides, the GI50 in the assay with SK-OV-3 is 72.3 µM (inactive); in the assay on ACHN, 21.9 µM (inactive).

As to `Cc1cc(Cc2cc(C)c(NC(=O)C(=O)C3C(=O)NC(=S)NC3=O)c(C(C)C)c2)cc(C(C)C)c1NC(=O)C(=O)C1C(=O)NC(=S)NC1=O`, the GI50 in the assay with OVCAR-3, with NCI-H23, in the assay on IGROV-1, in the assay on SF-268, in the assay with HT-29 and in the assay on KM12 was > 100 µM (inactive) in each case. Besides, the GI50 was > 100 µM (inactive) in the assay on HL-60; > 100 µM (inactive) with OVCAR-4; > 100 µM in the assay on HCT-15; > 100 µM (inactive) in the assay on OVCAR-8; > 100 µM (inactive) in the assay on A498; > 100 µM (inactive) in the assay on K562. For the same molecule, the GI50 in the assay on SK-OV-3 and with ACHN was > 100 µM (inactive) in each case.

On to `C[N+]12c3ccccc3O[B-]1(c1ccccc1)Oc1ccccc12` (stereo not given), for which the GI50 is 31 µM (inactive) in the assay with OVCAR-3; 52.8 µM (inactive) in the assay with NCI-H23; 25.4 µM (inactive) in the assay on IGROV-1; 20.3 µM (inactive) with SF-268; 73.5 µM (inactive) with HT-29; 25.2 µM (inactive) with KM12. For the same molecule, the GI50 was 14.5 µM (inactive) with HL-60; 31.6 µM (inactive) with OVCAR-4; 28.6 µM (inactive) with OVCAR-8; > 100 µM (inactive) in the assay with A498; 28.6 µM (inactive) in the assay with K562; 33.7 µM (inactive) in the assay on SK-OV-3. Further, in the assay on ACHN, the GI50 was 14.8 µM (inactive).

Take `Cc1ccc(S(=O)(=O)Nc2cccc(C)c2C)cc1`: the GI50 is 34 µM (inactive) with OVCAR-3; 28.1 µM (inactive) in the assay with NCI-H23; 82.4 µM (inactive) in the assay on IGROV-1; 86.7 µM (inactive) in the assay with SF-268; 74.1 µM (inactive) with HT-29; 52.7 µM (inactive) in the assay with KM12. In addition, the GI50 in the assay with HL-60 is 32.2 µM (inactive); with OVCAR-4, 19.5 µM (inactive); in the assay on HCT-15, 41.1 µM; in the assay on OVCAR-8, 72.4 µM (inactive); in the assay on A498 it was > 100 µM (inactive); in the assay on K562, 36.6 µM (inactive). Besides, the GI50 with SK-OV-3 is 56.9 µM (inactive).

As to `O=C(Cc1nc(-c2ccccc2)cc(=O)n1-c1ccccc1Cl)c1ccncc1`, the GI50 with OVCAR-3, in the assay on NCI-H23, in the assay with IGROV-1, in the assay with SF-268, in the assay with HT-29 and with KM12 was > 100 µM (inactive) in each case. Besides, the GI50 was 9.1 µM (inactive) in the assay on HL-60; > 100 µM (inactive) with OVCAR-4; > 100 µM in the assay with HCT-15; > 100 µM (inactive) in the assay with OVCAR-8; > 100 µM (inactive) in the assay on A498; > 100 µM (inactive) in the assay with K562. The GI50 in the assay with SK-OV-3 and in the assay with ACHN was > 100 µM (inactive) throughout.

For `COC(=O)c1c(O)ccc(O)c1C(C(C)=O)C(C)=O`, the GI50 in the assay on OVCAR-3, with NCI-H23, with IGROV-1, with SF-268, in the assay with HT-29 and in the assay with KM12 was > 100 µM (inactive) throughout. For the same molecule, the GI50 in the assay on HL-60 was > 100 µM (inactive); in the assay on OVCAR-4, > 100 µM (inactive); in the assay with HCT-15, > 100 µM; with OVCAR-8, > 100 µM (inactive); with A498, > 100 µM (inactive); in the assay on K562 it was > 100 µM (inactive). The GI50 with SK-OV-3 is > 100 µM (inactive).
